Laboratory results published in PubChem BioAssay (NCI).
“And” between values parts separate entries of the source, which are not always exact repeats. Equal values may be shown once.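 Method: 48-hour compound exposure of cells in 96-well plates, five concentrations, linear interpolation of endpoints. GI50 is the concentration that inhibits growth by half. At the TGI there is no net growth.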

How the values were obtained:
Experiment in all cases: DTP human tumour cell line panel, 48 h
MDA-MB-468 breast = system: MDA-MB-468 breast
786-0 renal = system: 786-0 renal
A498 renal = system: A498 renal
A549 NSCLC = system: A549 NSCLC
BT-549 breast = system: BT-549 breast
CAKI-1 renal = system: CAKI-1 renal
DU-145 prostate = system: DU-145 prostate
EKVX NSCLC = system: EKVX NSCLC
HCC-2998 colon = system: HCC-2998 colon
HCT-116 colon = system: HCT-116 colon
HCT-15 colon = system: HCT-15 colon
HOP-62 NSCLC = system: HOP-62 NSCLC
HS 578T breast = system: HS 578T breast
IGROV1 ovarian = system: IGROV1 ovarian
K-562 leukemia = system: K-562 leukemia
KM12 colon = system: KM12 colon
LOX IMVI melanoma = system: LOX IMVI melanoma
MALME-3M melanoma = system: MALME-3M melanoma
MCF7 breast = system: MCF7 breast
MDA-MB-231 breast = system: MDA-MB-231 breast
MDA-MB-435 = system: MDA-MB-435
NCI-H226 lung = system: NCI-H226 lung
NCI-H23 lung = system: NCI-H23 lung
NCI-H522 lung = system: NCI-H522 lung
NCI/ADR-RES ovarian = system: NCI/ADR-RES ovarian
OVCAR-3 ovarian = system: OVCAR-3 ovarian
OVCAR-5 ovarian = system: OVCAR-5 ovarian
PC-3 prostate = system: PC-3 prostate
SF-268 CNS = system: SF-268 CNS
SF-295 CNS = system: SF-295 CNS
SF-539 CNS = system: SF-539 CNS
SK-MEL-2 melanoma = system: SK-MEL-2 melanoma
SK-MEL-5 melanoma = system: SK-MEL-5 melanoma
SK-OV-3 ovarian = system: SK-OV-3 ovarian
SNB-19 CNS = system: SNB-19 CNS
SNB-75 CNS = system: SNB-75 CNS
SW-620 colon = system: SW-620 colon
T-47D breast = system: T-47D breast
TK-10 renal = system: TK-10 renal
U251 CNS = system: U251 CNS
UACC-257 melanoma = system: UACC-257 melanoma
UO-31 renal = system: UO-31 renal

CCOC(=O)Nc1nc2ccc(Cn3cccc3)cc2[nH]1
GI50 (MDA-MB-468 breast): 2.44 µM
TGI (MDA-MB-468 breast): > 100 µM

O=[N+]([O-])c1cc(Cl)c(Cl)c([N+](=O)[O-])c1Cl
GI50 (MDA-MB-468 breast): 1.05 µM
TGI (MDA-MB-468 breast): 2.64 µM

Cc1ccccc1NC(=O)N/C(N)=N/c1nc(-c2cccc([N+](=O)[O-])c2)cs1
GI50 (MDA-MB-468 breast): 1.64 µM
TGI (MDA-MB-468 breast): 7.24 µM

O=C1Nc2ccc(C(=O)c3ccco3)cc2/C1=C/c1cc(Cl)c(O)c(Cl)c1
GI50 (MDA-MB-468 breast): 1.86 µM
TGI (MDA-MB-468 breast): 16 µM

O=C(O)CCN1C(=O)/C(=C/C=C/c2ccc([N+](=O)[O-])o2)SC1=S
GI50 (786-0 renal): 1.63 µM
GI50 (A498 renal): 20 µM
TGI (A498 renal): 34.3 µM
TGI (A549 NSCLC): 13.5 µM
GI50 (BT-549 breast): 1.13 µM
TGI (BT-549 breast): 2.38 µM
GI50 (CAKI-1 renal): 1.77 µM
TGI (CAKI-1 renal): 3.17 µM
GI50 (DU-145 prostate): 3.33 µM
TGI (DU-145 prostate): 12.2 µM
GI50 (EKVX NSCLC): 1.41 µM
GI50 (HCC-2998 colon): 1.65 µM
TGI (HCC-2998 colon): 3.06 µM
GI50 (HCT-116 colon): 0.386 µM
TGI (HCT-116 colon): 1.66 µM
GI50 (HCT-15 colon): 0.43 µM
GI50 (HOP-62 NSCLC): 1.86 µM
TGI (HOP-62 NSCLC): 3.92 µM
GI50 (HS 578T breast): 1.65 µM
TGI (HS 578T breast): 6.71 µM
GI50 (IGROV1 ovarian): 1.58 µM
GI50 (K-562 leukemia): 0.378 µM
TGI (K-562 leukemia): 6.07 µM
TGI (KM12 colon): 2.71 µM
GI50 (LOX IMVI melanoma): 0.508 µM
GI50 (MALME-3M melanoma): 0.748 µM
TGI (MALME-3M melanoma): 2.12 µM
GI50 (MCF7 breast): 0.401 µM
GI50 (MDA-MB-231 breast): 1.27 µM
TGI (MDA-MB-231 breast): 2.58 µM
GI50 (MDA-MB-435): 1.53 µM
TGI (MDA-MB-435): 3.17 µM
GI50 (MDA-MB-468 breast): 1.13 µM
TGI (MDA-MB-468 breast): 2.49 µM
GI50 (NCI-H226 lung): 1.4 µM
TGI (NCI-H23 lung): 3.08 µM
GI50 (NCI-H522 lung): 0.379 µM
TGI (NCI-H522 lung): 1.46 µM
GI50 (NCI/ADR-RES ovarian): 2.01 µM
TGI (NCI/ADR-RES ovarian): 10.1 µM
GI50 (OVCAR-3 ovarian): 1.17 µM
TGI (OVCAR-3 ovarian): 2.57 µM
GI50 (OVCAR-5 ovarian): 1.8 µM
TGI (OVCAR-5 ovarian): 3.34 µM
GI50 (PC-3 prostate): 1.93 µM
TGI (PC-3 prostate): 6.09 µM
GI50 (SF-268 CNS): 1.68 µM
TGI (SF-268 CNS): 3.95 µM
GI50 (SF-295 CNS): 1.68 µM
TGI (SF-295 CNS): 3.24 µM
GI50 (SF-539 CNS): 1.09 µM
TGI (SF-539 CNS): 2.3 µM
GI50 (SK-MEL-2 melanoma): 1.16 µM
GI50 (SK-MEL-5 melanoma): 1.38 µM
TGI (SK-MEL-5 melanoma): 2.68 µM
GI50 (SK-OV-3 ovarian): 3.98 µM
GI50 (SNB-19 CNS): 2.09 µM
GI50 (SNB-75 CNS): 1.57 µM
TGI (SNB-75 CNS): 10.7 µM
GI50 (SW-620 colon): 1.26 µM
TGI (SW-620 colon): 2.81 µM
GI50 (T-47D breast): 1.41 µM
TGI (T-47D breast): 4.17 µM
GI50 (TK-10 renal): 1.81 µM
TGI (TK-10 renal): 3.35 µM
GI50 (U251 CNS): 0.849 µM
TGI (UACC-257 melanoma): 3.55 µM
GI50 (UO-31 renal): 1.26 µM
TGI (UO-31 renal): 2.53 µM

CC(=O)c1c(C)[nH]c(-c2nc3ccc(N4CCN(C)CC4)cc3[nH]2)c1-c1ccc(OCC2CCOCC2)cc1
GI50 (MDA-MB-468 breast): 0.302 µM
TGI (MDA-MB-468 breast): 7.88 µM

CN[C@@H](C)C(=O)N[C@H](C(=O)N1CCC[C@H]1C(=O)N[C@H]1c2ccccc2C[C@H]1OCC#CC#CCO[C@@H]1Cc2ccccc2[C@@H]1NC(=O)[C@@H]1CCCN1C(=O)[C@@H](NC(=O)[C@H](C)NC)C1CCCCC1)C1CCCCC1
GI50 (MDA-MB-468 breast): < 0.01 µM
TGI (MDA-MB-468 breast): 2.18 µM

NOCC(=O)O
GI50 (MDA-MB-468 breast): > 100 µM
TGI (MDA-MB-468 breast): > 100 µM

CO[C@@H]1/C=C\C=C(/C)C(=O)NC2=CC(=O)C(NCCN(C)C)=C(C[C@@H](C)C[C@@H](OC)[C@@H](O)[C@H](C)/C=C(\C)[C@H]1OC(N)=O)C2=O
GI50 (MDA-MB-468 breast): 0.0187 µM
TGI (MDA-MB-468 breast): 0.0656 µM

C=C1C(=O)O[C@H]2[C@H]1CC/C(CNC(=O)c1cc3cc(OC)ccc3[nH]1)=C\CC[C@@]1(C)O[C@@H]21
GI50 (MDA-MB-468 breast): 0.714 µM
TGI (MDA-MB-468 breast): 2.61 µM

CC(=O)N[C@H]1C=C[C@@H]2/C=C(C)/C=C/[C@@H](C)[C@H]([C@H](C)[C@H](O)[C@@H](C)NC(C)=O)OC(=O)/C=C/C=C(C)\C=C\[C@]2(C)C1
GI50 (MDA-MB-468 breast): 0.00184 µM and 0.0045 µM

COc1cc(Nc2nccc(Nc3ccc4c(C)[nH]nc4c3)n2)cc(OC)c1OC
GI50 (MDA-MB-468 breast): 2.12 µM
TGI (MDA-MB-468 breast): 7.86 µM

CC1=C2[C@@H](CC1)[C@]1(C)O[C@@](C3CCCCC3)(C[C@H]1OC(=O)CO)[C@H]2OC(=O)/C=C/c1ccccc1
GI50 (MDA-MB-468 breast): 9.64 µM
TGI (MDA-MB-468 breast): 24.4 µM

Cc1cc(C)c([O-])c(CN(C)CCN(C)Cc2cc(C)cc(C)c2[O-])c1.O=C([O-])c1cccc(C(=O)[O-])n1.[Ti+4]
GI50 (MDA-MB-468 breast): 1.33 µM
TGI (MDA-MB-468 breast): 3.65 µM

O=c1ccn(C2OC(CO)C(O)C2F)c(=O)[nH]1 (stereo not drawn)
GI50 (MDA-MB-468 breast): > 1000 µM
TGI (MDA-MB-468 breast): > 1000 µM

CC[C@H](NC(=O)[C@H](C)NC)C(=O)N1C[C@@H](O)C[C@H]1Cc1c(-c2[nH]c3cc(F)ccc3c2C[C@@H]2C[C@H](O)CN2C(=O)[C@H](CC)NC(=O)[C@H](C)NC)[nH]c2cc(F)ccc12
GI50 (MDA-MB-468 breast): 0.2 µM
TGI (MDA-MB-468 breast): 28 µM

COc1cc(C(=O)/C(C)=C/c2c[nH]c3ccccc23)cc(OC)c1OC
GI50 (MDA-MB-468 breast): 0.00334 µM

Cc1nc2sc(C(=O)Nc3cccc(Cl)c3C)c(N)c2cc1C(=O)/C=C/c1ccccc1
GI50 (MDA-MB-468 breast): 0.212 µM
TGI (MDA-MB-468 breast): 0.811 µM

COc1cc(OC)cc(C2CC(=O)Nc3c2c(C)nn3-c2nc3ccccc3[nH]2)c1 (stereo not drawn)
GI50 (MDA-MB-468 breast): 3.93 µM
TGI (MDA-MB-468 breast): > 100 µM

O=c1c2cc(Cl)ccc2oc2ccc(OCCCCCN3CCCCC3)cc12
GI50 (MDA-MB-468 breast): 5.19 µM
TGI (MDA-MB-468 breast): 12.7 µM

C#C[C@]1(O)CC[C@H]2[C@@H]3CC=C4c5sc(Nc6cccc(Cl)n6)nc5CC[C@]4(C)[C@H]3CC[C@@]21C
GI50 (MDA-MB-468 breast): 1.49 µM
TGI (MDA-MB-468 breast): 4.05 µM

O=c1c(Oc2ccc(F)cc2F)cc2cnc(NC3CCOCC3)nc2n1C1CCS(=O)(=O)CC1
GI50 (MDA-MB-468 breast): > 25 µM
TGI (MDA-MB-468 breast): > 25 µM

COc1ccc(CN(C)c2ccc(CO)c(Cl)c2)cc1
GI50 (MDA-MB-468 breast): 0.0551 µM
TGI (MDA-MB-468 breast): 0.197 µM

COc1cc(OC)c(/C=C/S(=O)(=O)Cc2cnc(OC)c(N)c2)c(OC)c1
GI50 (MDA-MB-468 breast): < 0.0212 µM
TGI (MDA-MB-468 breast): > 100 µM

CCN1CCN(C(=O)[C@]23CC[C@@H](C)[C@H](C)[C@@H]2C2=CC[C@@H]4[C@@]5(C)C/C(=C/c6ccncc6)C(=O)C(C)(C)[C@@H]5CC[C@@]4(C)[C@]2(C)CC3)CC1
GI50 (MDA-MB-468 breast): 1.63 µM
TGI (MDA-MB-468 breast): 3.38 µM

COc1ccc(/C=N\NC(=O)CN2CCN(c3cc4c(cc3F)c(=O)c(C(=O)N/N=C/c3ccc(OC)c(OC)c3)cn4C3CC3)CC2)cc1OC
GI50 (MDA-MB-468 breast): 3.07 µM
TGI (MDA-MB-468 breast): 8.35 µM

CC(C)=CCCC(C)c1ccc(C)c2c1OCN(CC1CCNCC1)C2 (stereo not drawn)
GI50 (MDA-MB-468 breast): 5.01 µM
TGI (MDA-MB-468 breast): 18.5 µM

O=C(O[C@H]1CN[C@H](C#Cc2cc3ncnc(Nc4ccc5c(ccn5Cc5cc(F)ccc5F)c4)c3s2)C1)N1CCOCC1
GI50 (MDA-MB-468 breast): 0.141 µM
TGI (MDA-MB-468 breast): 1.59 µM
